Laboratory results: ChEMBL document CHEMBL3885861, “Open TG-GATES”

Species on record: Rattus norvegicus
Test: Open TG-GATES - Regimen: Single
Assay type: toxicity, organism-based, Sprague-Dawley
Design: regimen Single, gender Male, age 6 weeks
Settings: in vivo, po, 0 mg/kg, route gavage, dose level Control; for APTT / Bas / Eos / Fbg / Hb / Ht / Lym / MCH / MCHC / MCV / Mono / Neu / PT / RBC / Ret / WBC / Plat: tissue Blood; for KIDNEY_L / KIDNEY_R / KIDNEY_TOTAL: tissue Kidney; for LIVER: tissue Liver

Which TERMINAL_BW (3 h) does the source give for `C[C@H](CS)C(=O)N1CCC[C@H]1C(=O)O` [CAPTOPRIL] here?
The TERMINAL_BW was 220.9 g.

What about the APTT (3 h) of the same compound?
Its APTT is 16.4 s.

What about the Bas (3 h) of the same compound?
The Bas was 0%.

And the Eos (3 h)?
Its Eos is 1.2%.

And the Fbg (3 h)?
The Fbg was 204.8 mg/dL.

What about the Hb (3 h) of the same compound?
The Hb was 13.1 g/dL.

And the Ht (3 h)?
The Ht was 39.7%.

And the Lym (3 h)?
The Lym was 79.2%.

What about the MCH (3 h) of the same compound?
Its MCH is 21.4 pg.

And the MCHC (3 h)?
The MCHC was 33.1%.

What about the MCV (3 h) of the same compound?
Its MCV is 64.5 fL.

And the Mono (3 h)?
The Mono was 6%.

And the Neu (3 h)?
The Neu was 14%.

And the PT (3 h)?
The PT was 11.7 s.

What about the RBC (3 h) of the same compound?
Its RBC is 615.2 x10_4/ul.

And the Ret (3 h)?
The Ret was 7.5%.

And the WBC (3 h)?
The WBC was 110.3 x10_2/uL.

And the KIDNEY_L (3 h)?
The KIDNEY_L was 0.9 g.

What about the KIDNEY_R (3 h) of the same compound?
Its KIDNEY_R is 1 g.

What about the KIDNEY_TOTAL (3 h) of the same compound?
The KIDNEY_TOTAL was 1.9 g.

And the ALP (3 h, tissue Plasma)?
Its ALP is 902.4 IU/L.

What about the ALT (3 h, tissue Plasma) of the same compound?
The ALT was 34 IU/L.

What about the AST (3 h, tissue Plasma) of the same compound?
The AST was 65.2 IU/L.

And the BUN (3 h, tissue Plasma)?
Its BUN is 13 mg/dL.

What about the CRE (3 h, tissue Plasma) of the same compound?
The CRE was 0.5 mg/dL.

And the DBIL (3 h, tissue Plasma)?
The DBIL was 0.018 mg/dL.

And the GLC (3 h, tissue Plasma)?
The GLC was 193.6 mg/dL.

And the IP (3 h, tissue Plasma)?
The IP was 9.9 mg/dL.

What about the K (3 h, tissue Plasma) of the same compound?
The K was 5.1 meq/L.

What about the LDH (3 h, tissue Plasma) of the same compound?
The LDH was 84.6 IU/L.

And the Na (3 h, tissue Plasma)?
Its Na is 137.6 meq/L.

What about the PL (3 h, tissue Plasma) of the same compound?
Its PL is 127.6 mg/dL.

And the RALB (3 h, tissue Plasma)?
Its RALB is 3.7 g/dL.

What about the TBIL (3 h, tissue Plasma) of the same compound?
The TBIL was 0.4 mg/dL.

And the TC (3 h, tissue Plasma)?
Its TC is 70.8 mg/dL.

What about the TG (3 h, tissue Plasma) of the same compound?
The TG was 42.6 mg/dL.

What about the TP (3 h, tissue Plasma) of the same compound?
The TP was 5.4 g/dL.

And the gamma-GTP (3 h, tissue Plasma)?
Its gamma-GTP is 1.6 IU/L.

And the TERMINAL_BW (6 h)?
Its TERMINAL_BW is 220.4 g.

And the APTT (6 h)?
Its APTT is 15.7 s.

What about the Bas (6 h) of the same compound?
The Bas was 0%.

What about the Eos (6 h) of the same compound?
Its Eos is 1.2%.

What about the Hb (6 h) of the same compound?
The Hb was 13.5 g/dL.

And the Ht (6 h)?
The Ht was 41.1%.

What about the Lym (6 h) of the same compound?
The Lym was 76.8%.

What about the MCH (6 h) of the same compound?
The MCH was 21.1 pg.

What about the MCHC (6 h) of the same compound?
Its MCHC is 32.9%.

And the MCV (6 h)?
The MCV was 64.3 fL.

And the Mono (6 h)?
Its Mono is 6.2%.

And the Neu (6 h)?
Its Neu is 16.2%.

What about the PT (6 h) of the same compound?
Its PT is 11.8 s.

And the Plat (6 h)?
The Plat was 118.9 x10_4/uL.

What about the RBC (6 h) of the same compound?
The RBC was 639.6 x10_4/ul.

And the Ret (6 h)?
Its Ret is 7.5%.

And the WBC (6 h)?
Its WBC is 124.4 x10_2/uL.

And the KIDNEY_L (6 h)?
Its KIDNEY_L is 1 g.

And the KIDNEY_R (6 h)?
The KIDNEY_R was 1 g.

And the KIDNEY_TOTAL (6 h)?
Its KIDNEY_TOTAL is 2 g.

What about the ALP (6 h, tissue Plasma) of the same compound?
Its ALP is 725.4 IU/L.

What about the ALT (6 h, tissue Plasma) of the same compound?
Its ALT is 31.2 IU/L.

And the AST (6 h, tissue Plasma)?
Its AST is 58.4 IU/L.

What about the BUN (6 h, tissue Plasma) of the same compound?
The BUN was 11.8 mg/dL.

And the CRE (6 h, tissue Plasma)?
Its CRE is 0.6 mg/dL.

What about the DBIL (6 h, tissue Plasma) of the same compound?
Its DBIL is 0.012 mg/dL.

And the GLC (6 h, tissue Plasma)?
Its GLC is 198.2 mg/dL.

And the K (6 h, tissue Plasma)?
Its K is 4.7 meq/L.

And the LDH (6 h, tissue Plasma)?
Its LDH is 75.6 IU/L.

What about the Na (6 h, tissue Plasma) of the same compound?
Its Na is 139 meq/L.

What about the PL (6 h, tissue Plasma) of the same compound?
The PL was 135.6 mg/dL.

What about the RALB (6 h, tissue Plasma) of the same compound?
Its RALB is 3.6 g/dL.

What about the TBIL (6 h, tissue Plasma) of the same compound?
The TBIL was 0.3 mg/dL.

And the TC (6 h, tissue Plasma)?
Its TC is 76.8 mg/dL.

And the TG (6 h, tissue Plasma)?
The TG was 60 mg/dL.

And the TP (6 h, tissue Plasma)?
Its TP is 5.3 g/dL.

And the gamma-GTP (6 h, tissue Plasma)?
The gamma-GTP was 1.4 IU/L.

And the TERMINAL_BW (9 h)?
Its TERMINAL_BW is 222.4 g.

And the APTT (9 h)?
The APTT was 16.3 s.

What about the Bas (9 h) of the same compound?
The Bas was 0%.

And the Eos (9 h)?
The Eos was 1%.

And the Fbg (9 h)?
Its Fbg is 207.2 mg/dL.

And the Hb (9 h)?
Its Hb is 12.9 g/dL.

What about the Ht (9 h) of the same compound?
Its Ht is 39.1%.

And the Lym (9 h)?
The Lym was 79.8%.

What about the MCH (9 h) of the same compound?
The MCH was 21.2 pg.

What about the MCHC (9 h) of the same compound?
The MCHC was 33%.

What about the MCV (9 h) of the same compound?
The MCV was 64.5 fL.

And the Mono (9 h)?
The Mono was 5.4%.

And the Neu (9 h)?
The Neu was 14%.

And the PT (9 h)?
Its PT is 12.2 s.

What about the Plat (9 h) of the same compound?
Its Plat is 118.8 x10_4/uL.

What about the RBC (9 h) of the same compound?
The RBC was 607 x10_4/ul.

What about the Ret (9 h) of the same compound?
Its Ret is 7.9%.

And the WBC (9 h)?
Its WBC is 89.1 x10_2/uL.

And the KIDNEY_L (9 h)?
Its KIDNEY_L is 1 g.

What about the KIDNEY_R (9 h) of the same compound?
The KIDNEY_R was 1 g.

And the KIDNEY_TOTAL (9 h)?
The KIDNEY_TOTAL was 2.1 g.

And the LIVER (9 h)?
The LIVER was 9.6 g.

And the ALP (9 h, tissue Plasma)?
The ALP was 868 IU/L.

And the ALT (9 h, tissue Plasma)?
The ALT was 33.4 IU/L.

And the AST (9 h, tissue Plasma)?
Its AST is 60.2 IU/L.

What about the BUN (9 h, tissue Plasma) of the same compound?
Its BUN is 13.4 mg/dL.

What about the CRE (9 h, tissue Plasma) of the same compound?
Its CRE is 0.4 mg/dL.

What about the DBIL (9 h, tissue Plasma) of the same compound?
The DBIL was 0.078 mg/dL.

What about the GLC (9 h, tissue Plasma) of the same compound?
Its GLC is 200 mg/dL.

And the IP (9 h, tissue Plasma)?
Its IP is 10 mg/dL.

What about the K (9 h, tissue Plasma) of the same compound?
Its K is 4.9 meq/L.

What about the LDH (9 h, tissue Plasma) of the same compound?
The LDH was 53.8 IU/L.

What about the Na (9 h, tissue Plasma) of the same compound?
Its Na is 137.8 meq/L.

And the PL (9 h, tissue Plasma)?
The PL was 132.2 mg/dL.

And the RALB (9 h, tissue Plasma)?
The RALB was 3.6 g/dL.

What about the TBIL (9 h, tissue Plasma) of the same compound?
Its TBIL is 0.4 mg/dL.

And the TC (9 h, tissue Plasma)?
Its TC is 68.8 mg/dL.

And the TG (9 h, tissue Plasma)?
Its TG is 64.8 mg/dL.

And the TP (9 h, tissue Plasma)?
The TP was 5.4 g/dL.

What about the gamma-GTP (9 h, tissue Plasma) of the same compound?
The gamma-GTP was 2 IU/L.

And the TERMINAL_BW (24 h)?
Its TERMINAL_BW is 235.3 g.

What about the APTT (24 h) of the same compound?
Its APTT is 15.7 s.

And the Bas (24 h)?
The Bas was 0%.

And the Eos (24 h)?
The Eos was 1.4%.

What about the Hb (24 h) of the same compound?
Its Hb is 13.4 g/dL.

And the Ht (24 h)?
The Ht was 40.3%.

And the Lym (24 h)?
The Lym was 77.6%.

What about the MCH (24 h) of the same compound?
Its MCH is 21.7 pg.

What about the MCHC (24 h) of the same compound?
Its MCHC is 33.1%.

What about the MCV (24 h) of the same compound?
The MCV was 65.6 fL.

And the Mono (24 h)?
The Mono was 5.8%.

And the Neu (24 h)?
Its Neu is 15.4%.

And the PT (24 h)?
Its PT is 11.4 s.

What about the Plat (24 h) of the same compound?
Its Plat is 115.5 x10_4/uL.

What about the RBC (24 h) of the same compound?
Its RBC is 614.6 x10_4/ul.

And the Ret (24 h)?
Its Ret is 9.1%.

And the WBC (24 h)?
The WBC was 114 x10_2/uL.

What about the KIDNEY_L (24 h) of the same compound?
Its KIDNEY_L is 1 g.

What about the KIDNEY_R (24 h) of the same compound?
Its KIDNEY_R is 1 g.

And the KIDNEY_TOTAL (24 h)?
The KIDNEY_TOTAL was 2 g.

What about the LIVER (24 h) of the same compound?
Its LIVER is 11.7 g.

And the ALP (24 h, tissue Plasma)?
The ALP was 943.6 IU/L.

What about the ALT (24 h, tissue Plasma) of the same compound?
Its ALT is 39 IU/L.

And the AST (24 h, tissue Plasma)?
Its AST is 65.2 IU/L.

And the BUN (24 h, tissue Plasma)?
Its BUN is 18.2 mg/dL.

What about the CRE (24 h, tissue Plasma) of the same compound?
The CRE was 0.6 mg/dL.

What about the Ca (24 h, tissue Plasma) of the same compound?
The Ca was 11 mg/dL.

What about the DBIL (24 h, tissue Plasma) of the same compound?
Its DBIL is 0.082 mg/dL.

And the GLC (24 h, tissue Plasma)?
The GLC was 199.8 mg/dL.

And the IP (24 h, tissue Plasma)?
Its IP is 8.5 mg/dL.

And the K (24 h, tissue Plasma)?
The K was 4.6 meq/L.

What about the Na (24 h, tissue Plasma) of the same compound?
Its Na is 140.2 meq/L.

And the PL (24 h, tissue Plasma)?
Its PL is 146 mg/dL.

What about the RALB (24 h, tissue Plasma) of the same compound?
The RALB was 3.9 g/dL.

What about the TBIL (24 h, tissue Plasma) of the same compound?
Its TBIL is 0.3 mg/dL.

What about the TC (24 h, tissue Plasma) of the same compound?
Its TC is 76.8 mg/dL.

What about the TG (24 h, tissue Plasma) of the same compound?
Its TG is 95.8 mg/dL.

What about the TP (24 h, tissue Plasma) of the same compound?
Its TP is 5.7 g/dL.
